Substitutions are numbered along the chain they refer to.

Experiment [1] concerns splenocytes from HIVBr27 immunized mice. Briefly: murine IFN-γ ELISPOT assay. Type of experiment: in vivo. As to conditions: splenocytes of HIVBr27-immunized BALB/c mice, 5 µM peptide. How it is done:
Six to eight week-old female BALB/c mice were used in this study. Six mice per group were injected intramuscularly, at weeks 0, 2 and 4, with HIVBr27 plasmid or empty pVAX1. Each quadriceps was injected with 50 µL of DNA at a concentration of 1 µg/µL in saline such that each animal received a total of 100 µg of plasmid DNA per immunization. Two weeks after the last DNA immunization, mice were euthanized with CO2.
Two weeks after the last immunization, mice were euthanized and spleens were removed aseptically. After obtaining single cell suspensions, cells were washed in 10 mL of RPMI 1640. Cells were then resuspended in R-10 (RPMI supplemented with 10% of fetal bovine serum (GIBCO), 2 mM L-glutamine (Life Technologies), 1 mM sodium pyruvate (Life Technologies), 1% vol/vol non-essential amino acids solution (Life Technologies), 1% vol/vol vitamin solution (Life Technologies), […] of Gentamicin, […] of Peflacin and 5×10^−5 M 2β-mercaptoetanol (Life Technologies). The viability of cells was evaluated using 0.2% Trypan Blue exclusion dye to discriminate between live and dead cells. Cell concentration was estimated with the aid of a Neubauer chamber and adjusted in cell culture medium. […]

In another experiment the target is HLA-DR DRB3*01:01 (Homo sapiens, UniProt P01903+P79483). Briefly: biochemical. Type of experiment: binding.
For the next experiment, the target named is HLA-DR DRB5*01:01 (Homo sapiens, UniProt P01903+Q30154). The experiment can be described thus: biochemical. Type of experiment: binding.
Experiment [2] concerns the target T1, HLA-DP DPA1*01:03/DPB1*04:01 (Homo sapiens, UniProt P04440+P20036).
T1 sequence (P20036 29-260): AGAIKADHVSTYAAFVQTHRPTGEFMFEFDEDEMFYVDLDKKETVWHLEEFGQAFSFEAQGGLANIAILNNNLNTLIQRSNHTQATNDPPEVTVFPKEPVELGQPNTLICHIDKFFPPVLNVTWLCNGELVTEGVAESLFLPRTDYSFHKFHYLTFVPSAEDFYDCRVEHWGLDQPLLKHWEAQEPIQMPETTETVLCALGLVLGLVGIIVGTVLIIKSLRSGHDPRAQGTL
T1 sequence (P04440 30-258): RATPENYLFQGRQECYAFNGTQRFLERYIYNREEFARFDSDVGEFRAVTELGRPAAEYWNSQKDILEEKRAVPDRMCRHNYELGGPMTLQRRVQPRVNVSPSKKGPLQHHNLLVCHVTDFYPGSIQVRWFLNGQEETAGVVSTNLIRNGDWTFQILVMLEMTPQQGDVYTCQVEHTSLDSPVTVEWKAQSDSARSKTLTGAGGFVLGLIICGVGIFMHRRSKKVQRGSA
The experiment can be described thus: biochemical. Type of experiment: binding.

Experiment [3] deals with HLA-DP DPA1*02:01/DPB1*01:01 (Homo sapiens, UniProt P04440+P20036, F191V/F38Y/F64Y/G113D/G114E/K142R/L158P/L37V/M105V/M116V/M62Q/P115A/Q81R/R125K/R223Q/T114A/T199I/T259P). Briefly: biochemical.
Experiment [4] has as its target T2, HLA-DP DPA1*01:03/DPB1*20:01 (Homo sapiens, UniProt P04440+P20036, A65V/A84D/A85E/E86D/F38Y/G113D/G114E/G40L/I94L/L37V/M116V/P115A/R125K/T199I).
T2 sequence (P20036 29-260): T1 sequence (P20036 29-260)
T2 sequence (P04440 30-258 L37V/F38Y/G40L/A65V/A84D/A85E/E86D/I94L/G113D/G114E/P115A/M116V/R125K/T199I/V234M): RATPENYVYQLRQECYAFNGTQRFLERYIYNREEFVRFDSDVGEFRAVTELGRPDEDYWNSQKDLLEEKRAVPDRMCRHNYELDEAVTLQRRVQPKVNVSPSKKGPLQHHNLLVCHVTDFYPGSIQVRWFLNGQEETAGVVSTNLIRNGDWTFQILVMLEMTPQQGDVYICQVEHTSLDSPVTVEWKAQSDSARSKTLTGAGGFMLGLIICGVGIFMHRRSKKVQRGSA
The experiment can be described thus: biochemical. As to conditions: read-out: Binding capacity/IC50 (nM) DPA1*01:03 DPB1*20:01. Type of experiment: binding.

For experiment [5], the target named is T3, HLA-DP DPA1*01:03/DPB1*02:01 (Homo sapiens, UniProt P04440+P20036, A65V/A84D/A85E/K98E).
T3 sequence (P20036 29-260): T1 sequence (P20036 29-260)
T3 sequence (P04440 30-258 A65V/A84D/A85E/K98E): T1 sequence (P04440 30-258) with A36V, A55D, A56E, K69E
Briefly: biochemical. Type of experiment: binding.

Experiment [6] has as its target T4, HLA-DP DPA1*01:03/DPB1*03:01 (Homo sapiens, UniProt P04440+P20036, A65V/A84D/A85E/E86D/F38Y/G113D/G114E/G40L/I94L/L37V/M105V/M116V/P115A/R125K/T199I).
T4 sequence (P20036 29-260): T1 sequence (P20036 29-260)
T4 sequence (P04440 30-258 L37V/F38Y/G40L/A65V/A84D/A85E/E86D/I94L/M105V/G113D/G114E/P115A/M116V/R125K/T199I): T2 sequence (P04440 30-258 L37V/F38Y/G40L/A65V/A84D/A85E/E86D/I94L/G113D/G114E/P115A/M116V/R125K/T199I/V234M) with M76V, M205V
Briefly: biochemical. Conditions: read-out: Binding capacity/IC50 (nM) DPA1*01:03 DPB1*03:01. Type of experiment: binding.

Experiment [7] deals with T5, HLA-DP DPA1*02:01/DPB1*14:01 (Homo sapiens, UniProt P04440+P20036, A65V/A84D/A85E/E86D/F191V/F38H/G113D/G114E/G40L/I94L/K142R/L158P/L37V/M105V/M116V/M62Q/P115A/Q81R/R125K/T114A/T199I/T259P).
T5 sequence (P20036 29-260 A42M/M62Q/Q81R/T114A/K142R/L158P/F191V/T259P): T1 sequence (P20036 29-260) with A14M, M34Q, Q53R, T86A, K114R, L130P, F163V, T231P
T5 sequence (P04440 30-258 L37V/F38H/G40L/A65V/A84D/A85E/E86D/I94L/M105V/G113D/G114E/P115A/M116V/R125K/T199I/R223Q): T2 sequence (P04440 30-258 L37V/F38Y/G40L/A65V/A84D/A85E/E86D/I94L/G113D/G114E/P115A/M116V/R125K/T199I/V234M) with Y9H, M76V, R194Q, M205V
The experiment can be described thus: biochemical. Type of experiment: binding. As to conditions: read-out: Binding capacity/IC50 (nM) DPA1*02:01 DPB1*14:01.

Experiment [8] addresses HLA-DP DPA1*03:01/DPB1*04:02 (Homo sapiens, UniProt P04440+P20036, A42M/A65V/A84D/A85E/L207M/L97S). Briefly: biochemical.
The target of experiment [9] is T6, HLA-DP DPA1*02:01/DPB1*05:01 (Homo sapiens, UniProt P04440+P20036, A65V/A84E/F191V/F64L/G113D/G114E/K142R/L158P/M116V/M62Q/P115A/Q81R/R125K/T114A/T199I/T259P/V234M).
T6 sequence (P20036 29-260 A42M/M62Q/Q81R/T114A/K142R/L158P/F191V/T259P): T1 sequence (P20036 29-260) with A14M, M34Q, Q53R, T86A, K114R, L130P, F163V, T231P
T6 sequence (P04440 30-258 F64L/A65V/A84E/G113D/G114E/P115A/M116V/R125K/T199I/V234M): T2 sequence (P04440 30-258 L37V/F38Y/G40L/A65V/A84D/A85E/E86D/I94L/G113D/G114E/P115A/M116V/R125K/T199I/V234M) with V8L, Y9F, L11G, F35L, D55E, E56A, D57E, L65I
The experiment can be described thus: biochemical. Type of experiment: binding. As to conditions: read-out: Binding capacity/IC50 (nM) DPA1*02:01 DPB1*05:01.

Chain of HLA-DP DPA1*02:01/DPB1*01:01 (P20036 29-260 A42M/M62Q/Q81R/T114A/K142R/L158P/F191V/T259P, other chains not shown): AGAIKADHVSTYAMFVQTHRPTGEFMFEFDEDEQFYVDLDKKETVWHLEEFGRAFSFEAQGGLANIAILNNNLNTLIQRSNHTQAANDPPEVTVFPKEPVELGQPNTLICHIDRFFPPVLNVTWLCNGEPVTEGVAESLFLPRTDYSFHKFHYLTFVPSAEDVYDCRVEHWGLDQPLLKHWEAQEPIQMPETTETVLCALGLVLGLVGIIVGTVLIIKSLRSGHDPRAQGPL

Take EWEFVSTPPLVKLWY [RT(413-427) B subtype]: the “IFN-γ secretion against variant compared to M-group consensus peptide” value in experiment [1] is listed as “reduced”.
With `CSCC[C@H](NC(=O)[C@@H]1CCCN1C(=O)[C@H](CCCNC(=N)N)NC(=O)[C@H](CC(C)C)NC(=O)[C@@H]1CCCN1C(=O)[C@@H](NC(=O)[C@H](CCC(N)=O)NC(=O)[C@@H]1CCCN1C(=O)[C@H](CCCNC(=N)N)NC(=O)[C@@H](NC(=O)[C@@H]1CCCN1C(=O)[C@H](Cc1ccccc1)NC(=O)CN)C(C)C)C(C)C)C(=O)N[C@H](C(=O)N[C@@H](Cc1ccc(O)cc1)C(=O)N[C@@H](CCCCN)C(=O)NCC(=O)N[C@@H](C)C(=O)N[C@@H](Cc1ccccc1)C(=O)N[C@@H](CC(=O)O)C(=O)N[C@@H](CC(C)C)C(N)=O)[C@@H](C)O` [nef(67-87)], the figures for the IC50 against HLA-DR DRB3*01:01 and against HLA-DR DRB5*01:01 were 6290 nM and 191 nM, respectively.
For EWEYVNTPPLVKLWY [RT(413-427) D subtype], the “IFN-γ secretion against variant compared to M-group consensus peptide” value in experiment [1] is recorded as “reduced”.
For the molecule `CC[C@H](C)[C@H](NC(=O)[C@H](CCSC)NC(=O)[C@@H](NC(=O)[C@H](CCC(N)=O)NC(=O)[C@H](Cc1c[nH]c2ccccc12)NC(=O)[C@H](CCCNC(=N)N)NC(=O)[C@H](CC(N)=O)NC(=O)[C@H](CCC(=O)O)NC(=O)[C@@H](N)CCSC)C(C)C)C(=O)N[C@H](C(=O)N[C@@H](Cc1c[nH]c2ccccc12)C(=O)N[C@@H](CCC(N)=O)C(=O)N[C@H](C(=O)N[C@@H](CC(=O)O)C(=O)N[C@@H](CCCNC(=N)N)C(N)=O)C(C)C)C(C)C` [vif(1-15)], the IC50 was 13 nM in experiment [2]; 1030 nM in experiment [3]; 364 nM in experiment [4]; 1550 nM in experiment [5]; 5840 nM in experiment [6]; 7240 nM in experiment [7]. The results for the IC50 in experiment [8] and in experiment [9] were 3750 nM and 8170 nM, respectively.
